Measurements taken from patent publication US6825326B2, “PSCA: prostate stem cell antigen and uses thereof” (The Regents of the University of California, priority 1997, dated 2004).

Tests used:
[1] = LD50 experiment to determine the maximum tolerable dose; type: in vivo, mice
Procedure: An LD50 experiment was performed to determine the maximum tolerable dose of doxorubicin. Doxorubicin (Sigma) and was resuspended in sterile PBS. Doxorubicin was administered by intraperitoneal injection, at the following doses: 50 μg, 25 μg, 12.5 μg, and 6.75 μg. […] At the lower dose ranges, the mice survived for more than 4 weeks. The maximal tolerable dose was 25 μg.

[2] = test system: PC3-PSCA tumors; test: Established subcutaneous PC3-PSCA tumors; conditions: day 43; 1G8 1 mg 3×/week 3 weeks; doxorubicin 25 μg once weekly 3 weeks
Procedure: PC3-PSCA cells were derived by retroviral gene transfer. […] Amphotropic retrovirus was generated by co-transfection of 293T cells with pSR-α containing PSCA and a retroviral helper plasmid containing the amphotropic envelope protein. PC3 cells were subsequently infected with the PSCA containing amphotropic retrovirus, and 48 hours after infection the cells were selected by growth in medium containing the neomycin analogue G418. After 2-3 weeks of selection and expansion, a Western blot was performed to confirm that the PC3-PSCA cells express PSCA protein.
PC3-PSCA cells were grown in T-150 flasks in DMEM+10% FBS prior to the injections. The cells were grown to log phase, harvested, washed, counted, then mixed with Matrigel at a 1:1 dilution, and kept on ice. For injection, male IcR-SCID mice were shaved on their flanks, and each mouse received a single subcutaneous injection of about 1×10^6 cells in a volume of 100 μl on the right flank. The growth of PC3-PSCA tumors was followed by caliper measurements of the growing tumors. The mice were selected for treatment when the tumor reached the size of 100-200 mm^3, at approximately 9 days after the subcutaneous injection. The tumor size was measured at days +9, +15, +23, +29, +36, and +43 post injection.
The mice treated with 1G8, were administered 1 mg of 1G8, three times per week for three consecutive weeks. […]

**Q.** What does the source list for `COc1cccc2c1C(=O)c1c(O)c3c(c(O)c1C2=O)C[C@@](O)(C(=O)CO)C[C@@H]3O[C@H]1C[C@H](N)[C@H](O)[C@H](C)O1` [doxorubicin]?
**A.** survival at the lower dose ranges ([1]; 25 μg, 12.5 μg, 6.75 μg intraperitoneal): more than 4 weeks; mortality at the highest dose ([1]; 50 μg intraperitoneal): all the mice died within 2 weeks; maximal tolerable dose ([1]; intraperitoneal injection): 25 µg; growth inhibition compared to PBS [2]: 4%
